From patent publication US20240270759A1, “Preparation of SHP2 phosphatase inhibitors and its applications” (Ya Therapeutics Inc, priority 2021, published 2024)

Target: T1, SHP2 full-length protein (Homo sapiens, UniProt Q06124)
T1 construct: purchased BPS Bioscience #79330
T1 sequence (Q06124 1-593): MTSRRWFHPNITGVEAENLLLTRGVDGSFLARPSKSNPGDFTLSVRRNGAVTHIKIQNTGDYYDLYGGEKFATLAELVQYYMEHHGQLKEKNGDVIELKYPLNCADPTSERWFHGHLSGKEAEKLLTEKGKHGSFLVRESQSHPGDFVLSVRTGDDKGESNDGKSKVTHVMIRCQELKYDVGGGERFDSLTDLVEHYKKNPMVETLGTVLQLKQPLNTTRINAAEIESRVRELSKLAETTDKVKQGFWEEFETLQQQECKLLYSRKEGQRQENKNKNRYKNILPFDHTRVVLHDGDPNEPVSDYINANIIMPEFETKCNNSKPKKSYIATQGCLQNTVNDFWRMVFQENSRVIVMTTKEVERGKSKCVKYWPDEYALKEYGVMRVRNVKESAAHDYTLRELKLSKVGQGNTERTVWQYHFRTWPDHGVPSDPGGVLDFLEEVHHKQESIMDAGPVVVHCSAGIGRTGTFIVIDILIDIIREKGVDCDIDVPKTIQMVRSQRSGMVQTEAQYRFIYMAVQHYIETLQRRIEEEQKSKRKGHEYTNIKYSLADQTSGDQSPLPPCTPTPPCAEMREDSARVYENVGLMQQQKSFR
Test: SHP2 allosteric inhibition experiment (Homogeneous Full Length SHP-2 Assay Kit)
Assay type: biochemical
Details: full-length SHP2 0.06 nM with SHP-2 activating peptide; ten-point, 1 μM to 0.05 nM; read-out: IC50 Values of Compounds Inhibiting SHP2
Source text: The following further describes and explains the present invention in combination with test examples, but these examples are not meant to limit the scope of the present invention. SHP2 allosteric inhibition experiment
The purpose of this test is to measure the ability of the compounds to inhibit the allosteric activity of the SHP2 full-length protein. Experimental equipment: a centrifuge (5810R) is purchased from Eppendorf Company; pipettes are purchased from Eppendorf Company and Rainin Company, and microplate readers are purchased from BioTek Company of the United States, SynergyH1 multimode microplate reader.
Experimental method: Homogeneous Full Length SHP-2 Assay Kit (BPS Bioscience, #79330) is used to detect SHP2 activity in vitro. First, add 18 μL of Master Mix to 96-well low-adsorption microplate (NUNC, #267342), that is, 0.5 μL of SHP-2 activating Peptide and 5 mM DTT are included in the reaction buffer with a final concentration of 1×. After centrifugation, add 5 μL of the compound to be tested in DMSO (final DMSO content is 1% (V/V) in each well: dissolve the compound to be tested in DMSO to 1 mM, conduct triple dilution with a total of 10 concentration levels ranging from 1 μM to 0.05 nM in the reaction buffer. After diluting SHP2 in 1× reaction buffer to a final concentration of 0.06 nM, add it to the reaction microwell plate, 2 μL per well. Set a full activity control ([…]) and a full inhibition control (without SHP-2) on the reaction plate, and incubate the reaction mixture at room temperature for 60 minutes after centrifugation.
After incubation, add 25 μL of Substrate solution to each well, containing Substrate with a final concentration of 10 μM and DTT with a final concentration of 5 mM, and after centrifugation, continue to incubate at room temperature for 30 minutes. After the reaction, set the excitation wavelength at 340 nm, the emission wavelength at 455 nm, and the gain value to 75 on the Synergy H1 microplate reader (Biotek) for reading.
Take the full activity control and full inhibition control as the values of Max and Min, and calculate the percentage inhibition rate of the wells treated with the compound based on the positive control wells (DMSO control wells) and negative control wells (no kinase added) on the reaction plate, (inhibition rate percentage=100−[(test compound−Min average value)/(Max average value−Min average value)]×100%. IC50 values of test compounds are calculated by fitting percentage of inhibition and ten-point concentration data to a 4-parameter nonlinear logic formula using GraphPad prism.

Row | SMILES | IC50 [nM]
1 | C[C@@H]1OCC2(CCN(c3ccc4c(=O)n(-c5cccc(Cl)c5Cl)c(=O)[nH]c4c3)CC2)C1N (stereo in doubt) [Compound 1, 7-((3S,4S)-4-amino-3-methyl-2-oxa-8-azaspiro[4.5]decane-8-yl)-3-(2,3-dichlorophenyl)quinazoline-2,4(1H,3H)-dione] | ≤ 10
2 | NC1COCC12CCN(c1ccc3c(=O)n(-c4cccc(Cl)c4Cl)c(=O)[nH]c3c1)CC2 (stereo in doubt) [Compound 2, (S)-7-(4-amino-2-oxa-8-azaspiro[4.5]decane-8-yl)-3-(2,3-dichlorophenyl)quinazoline-2,4(1H,3H)-dione] | ≤ 10
3 | Nc1nccc(-n2c(=O)[nH]c3cc(N4CCC5(CC4)COCC5N)ccc3c2=O)c1Cl (stereo in doubt) [Compound 3, (S)-3-(2-amino-3-chloropyridine-4-yl)-7-(4-amino-2-oxa-8-azaspiro[4.5]decane-8-yl)q uinazoline-2,4(1H,3H)-dione] | ≤ 10
4 | NC1c2cnccc2CC12CCN(c1ccc3c(=O)n(-c4cccc(Cl)c4Cl)c(=O)[nH]c3c1)CC2 (stereo in doubt) [Compound 6, (S)-7-(7-Amino-5,7-dihydrospiro [cyclopenta[c]pyridine-6,4′-piperidine]-1′-yl)-3-(2,3-dichlorophenyl)quinazoline-2,4(1H,3H)-dione] | ≤ 10
5 | NC1c2cccnc2CC12CCN(c1ccc3c(=O)n(-c4cccc(Cl)c4Cl)c(=O)[nH]c3c1)CC2 (stereo in doubt) [Compound 7, (S)-7-(5-Amino-5,7-dihydrospiro [cyclopenta[b]pyridine-6,4′-piperidine]-1′-yl)-3-(2,3-dichlorophenyl)quinazoline-2,4(1H,3H)-dione] | ≤ 10
6 | NC1c2ncccc2CC12CCN(c1ccc3c(=O)n(-c4cccc(Cl)c4Cl)c(=O)[nH]c3c1)CC2 (stereo in doubt) [Compound 8, (S)-7-(7-Amino-5,7-dihydrospiro[cyclopenta[b]pyridine-6,4′-piperidine]-1′-yl)-3-(2,3-dichlorophenyl)quinazoline-2,4(1H,3H)-dione] | ≤ 10
7 | N[C@H]1c2ccncc2CC12CCN(c1ccc3c(=O)n(-c4cccc(Cl)c4Cl)c(=O)[nH]c3c1)CC2 [Compound 5, (S)-7-(5-Amino-5,7-dihydrospiro[cyclopenta[c]pyridine-6,4′-piperidine]-1′-yl)-3-(2,3-dichlorophenyl)auinazoline-2.4(1H,3H)-dione] | ≤ 10
8 | CC1(N)CCN(c2cnc3c(=O)n(-c4cccc(Cl)c4Cl)c(=O)[nH]c3n2)CC1 [Compound 11] | 10 to 100
9 | N[C@@H]1c2ccccc2CC12CCN(c1cnc3c(=O)n(-c4cccc(Cl)c4Cl)c(=O)[nH]c3n1)CC2 [Compound 13, (S)-7-(1-amino-1,3-dihydrospiro[indene-2,4′-piperidine]-1′-yl)-3-(2,3-dichlorophenyl) pteridine-2,4(1H,3H)-dione] | 10 to 100
10 | N[C@@H]1c2cccnc2CC12CCN(c1cnc3c(=O)n(-c4cccc(Cl)c4Cl)c(=O)[nH]c3n1)CC2 [Compound 14, (S)-7-(5-Amino-5,7-dihydrospiro [cyclopenta[b]pyridine-6,4′-piperidine]-1′-yl)-3-(2,3-dichlorophenyl)pteridine-2,4(1 H,3H)-dione] | 10 to 100
11 | N[C@@H]1c2ccncc2CC12CCN(c1cnc3c(=O)n(-c4cccc(Cl)c4Cl)c(=O)[nH]c3n1)CC2 [Compound 15, (S)-7-(5-Amino-5,7-dihydrospiro [cyclopenta[c]pyridine-6,4′-piperidine]-1′-yl)-3-(2,3-dichlorophenyl)pteridine-2,4(1H,3H)-dione] | 10 to 100
12 | N[C@@H]1c2cnccc2CC12CCN(c1cnc3c(=O)n(-c4cccc(Cl)c4Cl)c(=O)[nH]c3n1)CC2 [Compound 16, (S)-7-(7-Amino-5,7-dihydrospiro [cyclopenta[c]pyridine-6,4′-piperidine]-1′-yl)-3-(2,3-dichlorophenyl)pteridine-2,4(1H,3H)-dione] | 10 to 100
13 | C[C@@H]1OCC2(CCN(c3cnc4c(=O)n(-c5ccnc(N)c5Cl)c(=O)[nH]c4n3)CC2)[C@@H]1N [Compound 17, 3-(2-amino-3-chloropyridine-4-yl)-7-((3S,4S)-4-amino-3-methyl-2-oxa-8-azaspiro[4.5]decane-8-yl)pteridine-2,4(1H,3H)-dione] | ≤ 10
14 | Nc1nccc(-n2c(=O)[nH]c3nc(N4CCC5(CC4)Cc4ccccc4[C@H]5N)cnc3c2=O)c1Cl [Compound 18, (S)-7-(1-amino-1,3-dihydrospiro[indene-2,4′-piperidine]-1′-yl)-3-(2-amino-3-chloropyridine-4-yl)pteridine-2,4(1H,3H)-dione] | ≤ 10
15 | Nc1nccc(-n2c(=O)[nH]c3nc(N4CCC5(CC4)Cc4ncccc4[C@H]5N)cnc3c2=O)c1Cl [Compound 19, (S)-3-(2-amino-3-chloropyridine-4-yl)-7-(5-amino-5,7-dihydrospiro[cyclopenta[b]pyridine-6,4′-piperidine]-1′-yl)pteridine-2,4(1H,3H)-dione] | ≤ 10
16 | Nc1nccc(-n2c(=O)[nH]c3nc(N4CCC5(CC4)Cc4cnccc4[C@H]5N)cnc3c2=O)c1Cl [Compound 20, (S)-3-(2-amino-3-chloropyridine-4-yl)-7-(5-amino-5,7-dihydrospiro[cyclopenta[c]pyridine-6,4′-piperidine]-1′-yl)pteridine-2,4(1H,3H)-dione] | ≤ 10
17 | Nc1nccc(-n2c(=O)[nH]c3nc(N4CCC5(CC4)Cc4ccncc4[C@H]5N)cnc3c2=O)c1Cl [Compound 21, (S)-3-(2-amino-3-chloropyridine-4-yl)-7-(7-amino-5,7-dihydrospiro[cyclopenta[c]pyridine-6,4′-piperidine]-1′-yl)pteridine-2,4(1H,3H)-dione] | ≤ 10
18 | Nc1nccc(-n2c(=O)[nH]c3nc(N4CCC5(CC4)Cc4cccnc4[C@H]5N)cnc3c2=O)c1Cl [Compound 22, (S)-3-(2-amino-3-chloropyridine-4-yl)-7-(7-amino-5,7-dihydrospiro[cyclopenta[b]pyridine-6,4′-piperidine]-1′-yl)pteridine-2,4(1H,3H)-dione] | ≤ 10
19 | C[C@@H]1OCC2(CCN(c3cnc4c(=O)n(-c5ccnc(NC6CC6)c5Cl)c(=O)[nH]c4n3)CC2)[C@@H]1N [Compound 23] | ≤ 10
20 | N[C@@H]1c2ccncc2CC12CCN(c1cnc3c(=O)n(-c4ccnc(NC5CC5)c4Cl)c(=O)[nH]c3n1)CC2 [Compound 24] | ≤ 10
21 | C[C@@H]1OCC2(CCN(c3ccc4c(=O)n(-c5cccc(Cl)c5Cl)c(=O)[nH]c4n3)CC2)[C@@H]1N [Compound 25, 7-((3S,4S)-4-amino-3-methyl-2-oxa-8-azaspiro[4.5]decane-8-yl)-3-(2,3-dichlorophenyl)pyridinyl[2,3-d]pyrimidine-2,4(1H,3H)-dione] | ≤ 10
22 | N[C@@H]1c2ccncc2CC12CCN(c1ccc3c(=O)n(-c4cccc(Cl)c4Cl)c(=O)[nH]c3n1)CC2 [Compound 26, (S)-7-(5-Amino-5,7-dihydrospiro [cyclopenta[c]pyridine-6,4′-piperidine]-1′-yl)-3-(2,3-dichlorophenyl)pyridinyl[2,3-d]pyrimidine-2,4(1H,3H)-dione] | ≤ 10
23 | Nc1nccc(-n2c(=O)[nH]c3nc(N4CCC5(CC4)Cc4cnccc4[C@H]5N)ccc3c2=O)c1Cl [Compound 27, (S)-3-(2-amino-3-chloropyridine-4-yl)-7-(5-amino-5,7-dihydrospiro[cyclopenta[c]pyridine-6,4′-piperidine]-1′-yl) pyridinyl[2,3-d]pyrimidine-2,4(1H,3H)-dione] | ≤ 10
24 | N[C@@H]1c2ccncc2CC12CCN(c1ccc3c(=O)n(-c4ccnc(NC5CC5)c4Cl)c(=O)[nH]c3n1)CC2 [Compound 28] | ≤ 10
